Laboratory results as given in patent US11944704B2, “Coenzyme Q10 aerosol” (UNM Rainforest Innovations, priority 2015, dated 2024).

Experiment: Maximum solubility of CoQ10 in coconut oil
Type: physicochemical
Conditions: in neobee (coconut oil)

## COC1=C(OC)C(=O)C(C/C=C(\C)CC/C=C(\C)CC/C=C(\C)CC/C=C(\C)CC/C=C(\C)CC/C=C(\C)CC/C=C(\C)CC/C=C(\C)CC/C=C(\C)CCC=C(C)C)=C(C)C1=O [Emulsion Q10, 2-[(2E,6E,10E,14E,18E,22E,26E,30E,34E)-3,7,11,15,19,23,27,31,35,39-Decamethyltetraconta-2,6,10,14,18,22,26,30,34,38-decaenyl]-5,6-dimethoxy-3-methylcyclohexa-2,5-diene-1,4-dione]
  maximum solubility: 6%
